Non-standard residues stand in square brackets, D forms with d. Residues, ends and D or L forms follow the SMILES beside them. pGlu = O=C1CC[C@@H](C(=O)O)N1
Columns and labels:
[1] = system: lymphocytes of patients suffering from rheumatoid arthritis; experiment: Active E-rosette test, lymphocytes of rheumatoid arthritis patients; assay type: cell-based, human; details: for E-rosette forming activity, percentage amount of active lymphocytes: n = 4
Description: (§1) The active E-rosette test was carried out according to a modified method of Wybran et al [Wybran et al: New Engl. J. Med. 292, 475 (1975)] by the lymphocites of healthy and autoimmune patients (rheumatoid arthritis and systemic lupus erythematosus). To 50 μl of a lymphocyte cell suspension 10^-3 -10^-11 moles/lit. solutions of the test material were added and the mixture was incubated in an atmosphere containing 5.0% of carbon dioxide, at 37° C. for 60 minutes. Thereafter 50 μlit. of a 1% sheep erythrocite suspension were added and the mixture was centrifuged at 1000 r.p.m. for 10 minutes followed by shaking with a modified Gallenkampf-shaker (shaking time: 30 sec, stroke: 8 cm, shaking frequency: 65/min.). The rosettes were fixed with a 0.1% glutaric aldehyde (50 μlit. for each tube, 3 min.). Lymphocytes bonding more than three sheep erythrocite were counted under a microscope and 4×100 cells were evaluated. The separated lymphocytes contain macrophages and polymorphonuclear cells (up to 10%) as an impurity. The number of the cells forming the rosettes was corrected by this value each case.

[2] = system: lymphocytes of healthy persons; experiment: Active E-rosette test, lymphocytes of healthy persons; assay type: cell-based, human; details: for E-rosette forming activity, percentage amount of active lymphocytes: n = 4
Description: as §1

[3] = system: antibody production against sheep erythrocyte; experiment: Effect on antibody production (Ceglowski's method), agglutination titer; assay type: in vivo, H. Wistar rats
Description: (1) The effect on antibody production was tested according to Ceglowski's method [Ceglowski: Ann. N.Y. Acad. Sci. 249, 343 (1975)]. New-born H. Wistar rats were treated with single 25 μlit. doses of 4×10^-3 -4×10^-7 moles/lit. of the test material (9 animals for each dose) at the latest at the 12th hour after birth. The 14-day animals were then immunized with a sheep erythrocyte suspension administering 0.5 ml. of a 5% sheep erythrocyte suspension each animal intraperitoneally. On the 7th day after immunization the animals were decapitated. The blood of three animals was mixed and from the serum obtained (after centrifuging at 3000 r.p.m. for 10 minutes) the titers for antibodies were determined by the method of Takatsy [Takatsy: Acta Microbiol. Acad. Sci. Hung. 3, 191 (1955)]. The results are expressed in agglutination titers. The titer corresponds to the […] dilution of the serum in which agglutination can be observed.

Row | Compound | E-rosette forming activity, percentage amount of active lymphocytes ([1]; 10^-3 moles/liter) | E-rosette forming activity, percentage amount of active lymphocytes ([1]; 10^-5 moles/liter) | E-rosette forming activity, percentage amount of active lymphocytes ([1]; 10^-7 moles/liter) | E-rosette forming activity, percentage amount of active lymphocytes ([1]; 10^-9 moles/liter) | E-rosette forming activity, percentage amount of active lymphocytes ([1]; 10^-11 moles/liter) | E-rosette forming activity, percentage amount of active lymphocytes ([2]; 10^-3 moles/liter) | E-rosette forming activity, percentage amount of active lymphocytes ([2]; 10^-5 moles/liter) | E-rosette forming activity, percentage amount of active lymphocytes ([2]; 10^-7 moles/liter) | E-rosette forming activity, percentage amount of active lymphocytes ([2]; 10^-9 moles/liter) | E-rosette forming activity, percentage amount of active lymphocytes ([2]; 10^-11 moles/liter) | Effect on E-rosette forming activity (in words) ([1]; 10^-5 moles/lit.) | In vivo effect on the antibody production (in words) ([3]; 4.10^-7 moles/lit.) | Antibody production, agglutination titer (X ± S.D.) ([3]; single 25 μlit. dose of 4·10^-3 moles/liter to new-born rats) | Antibody production, agglutination titer (X ± S.D.) ([3]; single 25 μlit. dose of 4·10^-5 moles/liter to new-born rats) | Antibody production, agglutination titer (X ± S.D.) ([3]; single 25 μlit. dose of 4·10^-7 moles/liter to new-born rats) | Effect on E-rosette forming activity (in words) ([2]; 10^-9 moles/lit.) | Effect on E-rosette forming activity (in words) ([2]; 10^-11 moles/lit.) | Effect on E-rosette forming activity (in words) ([1]; 10^-9 moles/lit.) | Effect on E-rosette forming activity (in words) ([1]; 10^-11 moles/lit.)
1 | CC(C)[C@H](NC(=O)[C@H](C)NC(=O)[C@H](CCCCN)NC(=O)[C@@H](N)CCCNC(=N)N)C(=O)O [Arg--Lys--Ala--Val, Arg-Lys-Ala-Val] (H-RKAV-OH) | 20.3% | 23.4% | 21.7% | 25.5% | 23.1% | 33.3% | 30.5% | 35.8% | 34.5% | 30.9% |  |  |  |  |  |  |  |  | 
2 | CC(C)[C@H](NC(=O)[C@H](CC(N)=O)NC(=O)[C@H](CCCCN)NC(=O)[C@@H](N)CCCNC(=N)N)C(=O)O [Arg--Lys--Asn--Val, Arg-Lys-Asn-Val] (H-RKNV-OH) | 22.3% | 21.9% | 24.6% | 23.7% | 24.3% | 35.5% | 39.1% |  | 35.4% | 36.7% |  |  |  |  |  |  |  |  | 
3 | CC(C)[C@H](NC(=O)[C@H](CC(=O)O)NC(=O)[C@H](C)NC(=O)[C@@H](N)CCCNC(=N)N)C(=O)O [Arg--Ala--Asp--Val, Arg-Ala-Asp-Val] (H-RADV-OH) | 21.8% | 20.2% | 19.8% | 20.7% | 22.5% | 32.5% | 33.4% | 32.4% | 38.2% | 36.0% |  |  |  |  |  |  |  |  | 
4 | N=C(N)NCCC[C@H](NC(=O)[C@@H]1CCC(=O)N1)C(=O)N[C@@H](CCCCN)C(=O)N[C@@H](CC(=O)O)C(=O)O [compound No. 8] ([pGlu]RKD-OH) |  |  |  |  |  |  |  |  |  |  | significant inhibiting activity |  |  |  |  |  |  |  | 
5 | CC(C)[C@H](NC(=O)[C@H](CC(N)=O)NC(=O)[C@H](CCCCN)NC(=O)[C@@H](N)CCCNC(=N)N)C(=O)O [compound No. 9] (H-RKNV-OH) |  |  |  |  |  |  |  |  |  |  | significant inhibiting activity |  |  |  |  |  |  |  | 
6 | CC(C)[C@H](NC(=O)[C@H](CCC(=O)O)NC(=O)[C@H](CCCCN)NC(=O)[C@@H](N)CCCNC(=N)N)C(=O)O [Arg--Lys--Glu--Val, Arg-Lys-Glu-Val] (H-RKEV-OH) |  |  |  |  |  | 33.2% | 32.9% | 36.2% | 35.4% | 33.0% |  |  |  |  |  |  |  |  | 
7 | CC[C@H](C)[C@H](NC(=O)[C@H](CC(=O)O)NC(=O)[C@H](CCCCN)NC(=O)[C@@H](N)CCCNC(=N)N)C(=O)O [Arg--Lys--Asp--Ile, Arg-Lys-Asp-Ile] (H-RKDI-OH) | 25.5% | 25.4% | 23.2% | 28.7% | 24.5% | 35.5% | 32.0% | 34.9% | 35.0% | 30.7% |  |  |  |  |  |  |  |  | 
8 | CC(C)[C@H](NC(=O)[C@H](CC(=O)O)NC(=O)[C@H](CCCCN)NC(=O)[C@H](CCCNC(=N)N)NC(=O)[C@@H]1CCC(=O)N1)C(=O)O [Glp--Arg--Lys--Asp--Val, Glp-Arg-Lys-Asp-Val] ([pGlu]RKDV-OH) | 22.8% | 23.2% | 21.4% | 19.4% | 20.4% |  |  |  |  |  |  | inhibiting activity | 9.0 ± 2.6 | 8.3 ± 0.6 | 7.2 ± 1.3 |  |  |  | 
9 | CC(C)[C@H](NC(=O)[C@H](CCCCN)NC(=O)[C@H](CC(=O)O)NC(=O)[C@@H](N)CCCNC(=N)N)C(=O)O [Arg--Asp--Lys--Val, Arg-Asp-Lys-Val] (H-RDKV-OH) | 25.4% | 26.2% | 26.4% | 27.3% | 27.5% | 34.2% | 37.5% | 37.7% | 40.4% | 36.4% |  |  |  |  |  | significant stimulating effect |  |  | 
10 | N=C(N)NCCC[C@H](NC(=O)[C@@H]1CCC(=O)N1)C(=O)N[C@@H](CCCCN)C(=O)N[C@@H](CC(=O)O)C(=O)O [Glp--Arg--Lys--Asp, Glp-Arg-Lys-Asp] ([pGlu]RKD-OH) | 20.6% | 18.7% | 19.5% | 19.7% | 18.4% | 29.1% | 33.8% | 35.1% | 26.6% | 38.1% |  |  |  |  |  |  | stimulating effect |  | 
11 | CC(C)[C@H](NC(=O)[C@H](CC(=O)O)NC(=O)[C@H](CCCNC(=N)N)NC(=O)[C@@H](N)CCCCN)C(=O)O [Lys--Arg--Asp--Val, Lys-Arg-Asp-Val] (H-KRDV-OH) | 23.6% | 25.8% | 21.2% | 25.7% | 26.6% | 31.5% | 25.6% | 30.0% | 29.1% | 32.9% |  |  |  |  |  |  |  | significantly stimulated | stimulating effect

From patent US4428938A, “Peptides affecting the immune regulation and a process for their preparation” (Richter Gedeon Vegyeszeti Gyar Rt., priority 1981, dated 1984)
